Assay results reported in patent US20220202799A1, “PHARMACEUTICAL FORMULATIONS CONTAINING P2Y14 ANTAGONISTS” (priority 2019, published 2022).
Several values for one entry are separate records, joined by “and”; a condition that tells them apart may be missing. Identical values can stand only once. Like-named read-outs stand apart in the source and are kept apart here.

How the values were obtained:
[1] = Loss of PPTN due to adherence to surfaces of vessels; assay type: physicochemical; details: 200 ng/ml PPTN, no solubilizing agent; Control 48 h, glass scintillation vial
[2] = Solubility of PPTN in various aqueous and organic solvents; assay type: physicochemical; details: thermodynamic from solid, PPTN HCl salt, room temperature, read-out: Solubility Estimate
Method: The solubility of PPTN in various aqueous and organic solvents was tested. Test media were prepared, and 5 mg/mL solid PPTN (HCl salt) was added at room temperature. If all PPTN dissolved under these conditions, additional PPTN was added to a total of 10 mg/mL. After 24 hours, undissolved material was removed, and the concentration of PPTN in the supernatant was analyzed by HPLC.

[3] = Plasma concentrations and TK parameters, 72-hour continuous intravenous infusion; assay type: in vivo, Sprague-Dawley rats; details: for Accumulation ratio (C72h/C24h) / Css / Female/Male C72h / Accumulation ratio / half-life: 72 hours of intravenous infusion; for half-life / concentration at 24 h / concentration at 48 h / concentration at 72 h / concentration at 78 h / concentration at 84 h / concentration at 96 h: Sprague-Dawley, rat, plasma; for Plasma concentration, individual animal / concentration at 24 h / concentration at 48 h / concentration at 72 h / concentration at 78 h / concentration at 84 h / concentration at 96 h: female Sprague-Dawley rats; for concentration at 24 h / concentration at 48 h / concentration at 72 h / concentration at 78 h / concentration at 84 h / concentration at 96 h: female, iv
Method: The safety and pharmacokinetics of PPTN (KB-1801) in rats receiving continuous intravenous injections of SBECD-containing solutions were analyzed. Three cohorts of six male and six female rats each were given continuous intravenous infusion of PPTN (KB-1801) at 10 mg/kg/day, 30 mg/kg/day or 100 mg/kg/day in a dosing solution containing PPTN at 0.25 mg/mL, 0.75 mg/mL or 2.5 mg/mL and SBECD at about 3.8%. Dosing volume was 40 mIkg/day. [table]

[4] = Female, Group 16, 100 mg/kg/day

O=C(O)c1cc(-c2ccc(C3CCNCC3)cc2)c2ccc(-c3ccc(C(F)(F)F)cc3)cc2c1 [KB-1801, 4-[4-(piperidin-4-yl)phenyl]-7-[4-(trifluoromethyl)phenyl]-2-naphthoic acid]
% recovery vs. standard [1]: 26% | solubility at 24 h ([2]; organic solvent or mixture, DMAc, pH 1-2): > 100 mg/mL | solubility at 24 h ([2]; organic solvent or mixture, NMP, pH 1-2): > 100 mg/mL | solubility at 24 h ([2]; organic solvent or mixture, PEG 400, pH ~2): ~25 mg/mL | solubility at 24 h ([2]; organic solvent or mixture, ethanol, pH ~2): 25 to 30 mg/mL | solubility at 24 h ([2]; organic solvent or mixture, propylene glycol, pH ~2): 40 to 50 mg/mL | solubility at 24 h ([2]; water with 1% DMAc, water w/ 1% DMAc, pH 2-3, 24 hours): 0.1 to 0.5 mg/mL | Accumulation ratio (C72h/C24h) ([3]; Female, Group14, 10 mg/kg/day): 0.91 | Css ([3]; Female, Group14, 10 mg/kg/day): 606.0 ± 52.0 ng/mL | Accumulation ratio (C72h/C24h) ([3]; Female, Group 15, 30 mg/kg/day): 0.84 | Css ([3]; Female, Group 15, 30 mg/kg/day): 2037.0 ± 433.7 ng/mL | Accumulation ratio (C72h/C24h) [3, 4]: 0.88 | Css [3, 4]: 6595.6 ± 696.2 ng/mL | Female/Male C72h ([3]; Group14, 10 mg/kg/day): 1.05 | Female/Male C72h ([3]; Group 15, 30 mg/kg/day): 1.18 | Female/Male C72h ([3]; Group 16, 100 mg/kg/day): 0.70 | Accumulation ratio ([3]; Male, Group14, 10 mg/kg/day): 0.74 | Css ([3]; Male, Group14, 10 mg/kg/day): 636.4 ± 96.8 ng/mL | Accumulation ratio ([3]; Male, Group 15, 30 mg/kg/day): 0.86 | Css ([3]; Male, Group 15, 30 mg/kg/day): 1974.4 ± 240.2 ng/mL | Accumulation ratio ([3]; Male, Group 16, 100 mg/kg/day): 1.03 | Css ([3]; Male, Group 16, 100 mg/kg/day): 7774.6 ± 1241.3 ng/mL | half-life ([3]; Female, Group14, 10 mg/kg/day): 6.67 ± 1.21 h | half-life ([3]; Female, Group 15, 30 mg/kg/day): 7.06 ± 0.93 h | half-life [3, 4]: 6.64 ± 0.36 h | half-life ([3]; Male, Group14, 10 mg/kg/day): 7.91 ± 1.06 h | half-life ([3]; Male, Group 15, 30 mg/kg/day): 8.29 ± 0.93 h | half-life ([3]; Male, Group 16, 100 mg/kg/day): 8.83 ± 3.33 h | Plasma concentration, individual animal ([3]; 72-hour intravenous infusion at 10 mg/kg/day, time 24 h, 10 mg/kg/day): 784.2 ng/mL and 685.7 ng/mL | Plasma concentration, individual animal ([3]; 72-hour intravenous infusion at 10 mg/kg/day, time 48 h, 10 mg/kg/day): 650.5 ng/mL and 588.8 ng/mL | Plasma concentration, individual animal ([3]; 72-hour intravenous infusion at 10 mg/kg/day, time 72 h, 10 mg/kg/day): 756.4 ng/mL and 602.0 ng/mL | Plasma concentration, individual animal ([3]; 72-hour intravenous infusion at 10 mg/kg/day, time 78 h, 10 mg/kg/day): 131.4 ng/mL and 160.1 ng/mL | Plasma concentration, individual animal ([3]; 72-hour intravenous infusion at 10 mg/kg/day, time 84 h, 10 mg/kg/day): 103.5 ng/mL and 64.3 ng/mL | Plasma concentration, individual animal ([3]; 72-hour intravenous infusion at 10 mg/kg/day, time 96 h, 10 mg/kg/day): 22.9 ng/mL and 15.3 ng/mL | Plasma concentration, individual animal ([3]; 72-hour intravenous infusion at 30 mg/kg/day, time 24 h, 30 mg/kg/day): 2027.1 ng/mL and 2581.5 ng/mL | Plasma concentration, individual animal ([3]; 72-hour intravenous infusion at 30 mg/kg/day, time 48 h, 30 mg/kg/day): 1661.0 ng/mL and 1763.6 ng/mL | Plasma concentration, individual animal ([3]; 72-hour intravenous infusion at 30 mg/kg/day, time 72 h, 30 mg/kg/day): 1397.7 ng/mL and 2300.3 ng/mL | Plasma concentration, individual animal ([3]; 72-hour intravenous infusion at 30 mg/kg/day, time 78 h, 30 mg/kg/day): 449.3 ng/mL and 585.0 ng/mL | Plasma concentration, individual animal ([3]; 72-hour intravenous infusion at 30 mg/kg/day, time 84 h, 30 mg/kg/day): 453.1 ng/mL and 160.2 ng/mL and 306.2 ng/mL | Plasma concentration, individual animal ([3]; 72-hour intravenous infusion at 30 mg/kg/day, time 96 h, 30 mg/kg/day): 75.6 ng/mL and 115.3 ng/mL | Plasma concentration, individual animal ([3]; 72-hour intravenous infusion at 100 mg/kg/day, time 24 h, 100 mg/kg/day): 6709.0 ng/mL and 8238.2 ng/mL | Plasma concentration, individual animal ([3]; 72-hour intravenous infusion at 100 mg/kg/day, time 48 h, 100 mg/kg/day): 5872.0 ng/mL and 8226.5 ng/mL | Plasma concentration, individual animal ([3]; 72-hour intravenous infusion at 100 mg/kg/day, time 72 h, 100 mg/kg/day): 6680.1 ng/mL and 6734.5 ng/mL | Plasma concentration, individual animal ([3]; 72-hour intravenous infusion at 100 mg/kg/day, time 78 h, 100 mg/kg/day): 1454.4 ng/mL and 2119.8 ng/mL | Plasma concentration, individual animal ([3]; 72-hour intravenous infusion at 100 mg/kg/day, time 84 h, 100 mg/kg/day): 1075.5 ng/mL and 1046.1 ng/mL | Plasma concentration, individual animal ([3]; 72-hour intravenous infusion at 100 mg/kg/day, time 96 h, 100 mg/kg/day): 211.8 ng/mL and 342.6 ng/mL | concentration at 24 h ([3]; 10 mg/kg/day, 72-hour intravenous infusion at 10 mg/kg/day, time 24 h, read-out: Plasma concentration, Mean): 688 ng/mL | concentration at 24 h ([3]; 10 mg/kg/day, 72-hour intravenous infusion at 10 mg/kg/day, time 24 h, read-out: Plasma concentration, individual animal): 595 ng/mL | concentration at 48 h ([3]; 10 mg/kg/day, 72-hour intravenous infusion at 10 mg/kg/day, time 48 h, read-out: Plasma concentration, Mean): 654 ng/mL | concentration at 48 h ([3]; 10 mg/kg/day, 72-hour intravenous infusion at 10 mg/kg/day, time 48 h, read-out: Plasma concentration, individual animal): 722 ng/mL | concentration at 72 h ([3]; 10 mg/kg/day, 72-hour intravenous infusion at 10 mg/kg/day, time 72 h, read-out: Plasma concentration, Mean): 624 ng/mL | concentration at 72 h ([3]; 10 mg/kg/day, 72-hour intravenous infusion at 10 mg/kg/day, time 72 h, read-out: Plasma concentration, individual animal): 514 ng/mL | concentration at 78 h ([3]; 10 mg/kg/day, 72-hour intravenous infusion at 10 mg/kg/day, time 78 h, read-out: Plasma concentration, Mean): 147 ng/mL | concentration at 78 h ([3]; 10 mg/kg/day, 72-hour intravenous infusion at 10 mg/kg/day, time 78 h, read-out: Plasma concentration, individual animal): 150 ng/mL | concentration at 84 h ([3]; 10 mg/kg/day, 72-hour intravenous infusion at 10 mg/kg/day, time 84 h, read-out: Plasma concentration, Mean): 80.9 ng/mL | concentration at 84 h ([3]; 10 mg/kg/day, 72-hour intravenous infusion at 10 mg/kg/day, time 84 h, read-out: Plasma concentration, individual animal): 74.8 ng/mL | concentration at 96 h ([3]; 10 mg/kg/day, 72-hour intravenous infusion at 10 mg/kg/day, time 96 h, read-out: Plasma concentration, Mean): 22.5 ng/mL | concentration at 96 h ([3]; 10 mg/kg/day, 72-hour intravenous infusion at 10 mg/kg/day, time 96 h, read-out: Plasma concentration, individual animal): 29.3 ng/mL | concentration at 24 h ([3]; 30 mg/kg/day, 72-hour intravenous infusion at 30 mg/kg/day, time 24 h, read-out: Plasma concentration, Mean): 2340 ng/mL | concentration at 24 h ([3]; 30 mg/kg/day, 72-hour intravenous infusion at 30 mg/kg/day, time 24 h, read-out: Plasma concentration, individual animal): 2420 ng/mL | concentration at 48 h ([3]; 30 mg/kg/day, 72-hour intravenous infusion at 30 mg/kg/day, time 48 h, read-out: Plasma concentration, Mean): 2210 ng/mL | concentration at 48 h ([3]; 30 mg/kg/day, 72-hour intravenous infusion at 30 mg/kg/day, time 48 h, read-out: Plasma concentration, individual animal): 3220 ng/mL | concentration at 72 h ([3]; 30 mg/kg/day, 72-hour intravenous infusion at 30 mg/kg/day, time 72 h, read-out: Plasma concentration, Mean): 1970 ng/mL | concentration at 72 h ([3]; 30 mg/kg/day, 72-hour intravenous infusion at 30 mg/kg/day, time 72 h, read-out: Plasma concentration, individual animal): 2210 ng/mL | concentration at 78 h ([3]; 30 mg/kg/day, 72-hour intravenous infusion at 30 mg/kg/day, time 78 h, read-out: Plasma concentration, Mean): 544 ng/mL | concentration at 78 h ([3]; 30 mg/kg/day, 72-hour intravenous infusion at 30 mg/kg/day, time 78 h, read-out: Plasma concentration, individual animal): 597 ng/mL | concentration at 84 h ([3]; 30 mg/kg/day, 72-hour intravenous infusion at 30 mg/kg/day, time 84 h, read-out: Plasma concentration, Mean): 306 ng/mL | concentration at 96 h ([3]; 30 mg/kg/day, 72-hour intravenous infusion at 30 mg/kg/day, time 96 h, read-out: Plasma concentration, Mean): 90.8 ng/mL
